Experiments:
green foxtail [1] = experiment: Test Example 5: herbicidal effect by foliage application, plastic box (Table 20, symbol G); format: in vivo, green foxtail (Setaria viridis); details: foliage application, AAH 320 g/ha, three weeks after application
Method in brief: (§1)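 Plants sown in sterilized diluvial soil and grown 14 days in a greenhouse at 25° C to 30° C, then sprayed on the foliage with the compound's emulsion diluted in water to a predetermined herbicide amount. Injury to weeds and crops scored three weeks after application on a visual rating scale.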

blackgrass = experiment: Test Example 5: herbicidal effect by foliage application, plastic box (Table 20, symbol J); format: in vivo, blackgrass (Alopecurus myosuroides); details: foliage application, AAH 320 g/ha, three weeks after application
Method in brief: as §1

redroot pigweed [2] = experiment: Test Example 5: herbicidal effect by foliage application, plastic box (Table 20, symbol N); format: in vivo, redroot pigweed (Amaranthus retroflexus); details: foliage application, AAH 320 g/ha, three weeks after application
Method in brief: as §1

lambsquarters [3] = experiment: Test Example 5: herbicidal effect by foliage application, plastic box (Table 20, symbol O); format: in vivo, lambsquarters (Chenopodium album); details: foliage application, AAH 320 g/ha, three weeks after application
Method in brief: as §1

chickweed [4] = experiment: Test Example 4: herbicidal effect by soil treatment (Table 19, symbol P); format: in vivo, common chickweed (Stellaria media); details: AAH 320 g/ha
Method in brief: (§2)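 Three weeks of greenhouse growth at 25° C. to 30° C. followed a uniform surface spray of water-diluted emulsion at a predetermined herbicide amount. Seeds had been sown beforehand under about 1.5 cm of sterilized diluvial soil. Grading followed criteria set out in an earlier test.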

wild oat [5] = experiment: Test Example 5: herbicidal effect by foliage application, plastic box (Table 20, symbol I); format: in vivo, wild oat (Avena fatua); details: foliage application, AAH 320 g/ha, three weeks after application
Method in brief: as §1

Italian ryegrass [6] = experiment: Test Example 4: herbicidal effect by soil treatment (Table 19, symbol K); format: in vivo, Italian ryegrass (Lolium multiflorum); details: AAH 320 g/ha
Method in brief: as §2

barnyard grass [7] = experiment: Test Example 4: herbicidal effect by soil treatment (Table 19, symbol H); format: in vivo, barnyard grass (Echinochloa crus-galli); details: AAH 320 g/ha
Method in brief: as §2

velvetleaf [8] = experiment: Test Example 4: herbicidal effect by soil treatment (Table 19, symbol M); format: in vivo, velvetleaf (Abutilon theophrasti); details: AAH 320 g/ha
Method in brief: as §2

persian speedwell [9] = experiment: Test Example 5: herbicidal effect by foliage application, plastic box (Table 20, symbol R); format: in vivo, Persian speedwell (Veronica persica); details: foliage application, AAH 320 g/ha, three weeks after application
Method in brief: as §1

Chinese sprangletop = experiment: Test Example 3: herbicidal effect by foliage application, Wagner pot (Table 18, symbol D); format: in vivo, chinese sprangletop (Leptochloa chinensis); details: 320 g/ha
Method in brief: (§3)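 Plants were sown in alluvial soil held under 0.1–0.5 cm standing water and grown 14 days in a greenhouse at 25–30 °C. An emulsifiable formulation, water-diluted to the set dose, was then sprayed onto the foliage, and effects were scored three weeks later using previously defined criteria.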

green foxtail [10] = experiment: Test Example 4: herbicidal effect by soil treatment (Table 19, symbol G); format: in vivo, green foxtail (Setaria viridis); details: AAH 320 g/ha
Method in brief: as §2

barnyard grass [11] = experiment: Test Example 5: herbicidal effect by foliage application, plastic box (Table 20, symbol H); format: in vivo, barnyard grass (Echinochloa crus-galli); details: foliage application, AAH 320 g/ha, three weeks after application
Method in brief: as §1

chickweed [12] = experiment: Test Example 5: herbicidal effect by foliage application, plastic box (Table 20, symbol P); format: in vivo, common chickweed (Stellaria media); details: foliage application, AAH 320 g/ha, three weeks after application
Method in brief: as §1

redroot pigweed [13] = experiment: Test Example 4: herbicidal effect by soil treatment (Table 19, symbol N); format: in vivo, redroot pigweed (Amaranthus retroflexus); details: AAH 320 g/ha
Method in brief: as §2

southern crabgrass [14] = experiment: Test Example 4: herbicidal effect by soil treatment (Table 19, symbol F); format: in vivo, southern crabgrass (Digitaria ciliaris); details: AAH 320 g/ha
Method in brief: as §2

windgrass = experiment: Test Example 5: herbicidal effect by foliage application, plastic box (Table 20, symbol L); format: in vivo, windgrass (Apera spica-venti); details: foliage application, AAH 320 g/ha, three weeks after application
Method in brief: as §1

lambsquarters [15] = experiment: Test Example 4: herbicidal effect by soil treatment (Table 19, symbol O); format: in vivo, lambsquarters (Chenopodium album); details: AAH 320 g/ha
Method in brief: as §2

wild oat [16] = experiment: Test Example 4: herbicidal effect by soil treatment (Table 19, symbol I); format: in vivo, wild oat (Avena fatua); details: AAH 320 g/ha
Method in brief: as §2

rice flat sedge = experiment: Test Example 3: herbicidal effect by foliage application, Wagner pot (Table 18, symbol E); format: in vivo, rice flat sedge (Cyperus iria); details: 320 g/ha
Method in brief: as §3

southern crabgrass [17] = experiment: Test Example 5: herbicidal effect by foliage application, plastic box (Table 20, symbol F); format: in vivo, southern crabgrass (Digitaria ciliaris); details: foliage application, AAH 320 g/ha, three weeks after application
Method in brief: as §1

velvetleaf [18] = experiment: Test Example 5: herbicidal effect by foliage application, plastic box (Table 20, symbol M); format: in vivo, velvetleaf (Abutilon theophrasti); details: foliage application, AAH 320 g/ha, three weeks after application
Method in brief: as §1

persian speedwell [19] = experiment: Test Example 4: herbicidal effect by soil treatment (Table 19, symbol R); format: in vivo, Persian speedwell (Veronica persica); details: AAH 320 g/ha
Description: [Test Example 4] Herbicidal Effect Test by Soil Treatment
Sterilized diluvial soil was placed in a plastic box having a length of 21 cm, a width of 13 cm, and a depth of 7 cm. The seeds of each of southern crabgrass, green foxtail, barnyard grass, wild oat, blackgrass, Italian ryegrass, windgrass, velvetleaf, redroot pigweed, lambsquarters, chickweed, false cleavers, persian speedwell, corn, soybean, rice, wheat, beet, and rapeseed were sowed in a spot-like manner and covered with the soil having a thickness of about 1.5 cm. Subsequently, the emulsion agent of the compound of the present invention prepared according to Formulation Example 2 was diluted with water so as to achieve a predetermined herbicide amount, and the diluted emulsion agent was uniformly applied to the surface of the soil with a small-sized spray. The plastic box was placed in a greenhouse at 25° C. to 30° C. for growth of the plants. Three weeks after the herbicide application, the effect of the herbicide on each plant was evaluated according to the criteria of Test Example 1.

barnyard grass [20] = experiment: Test Example 3: herbicidal effect by foliage application, Wagner pot (Table 18, symbol H); format: in vivo, barnyard grass (Echinochloa crus-galli); details: 320 g/ha
Method in brief: as §3

Italian ryegrass [21] = experiment: Test Example 5: herbicidal effect by foliage application, plastic box (Table 20, symbol K); format: in vivo, Italian ryegrass (Lolium multiflorum); details: foliage application, AAH 320 g/ha, three weeks after application
Method in brief: as §1

CCCC(=O)Oc1c(C)nn(C)c(=O)c1-c1c(-c2ccc(C(F)(F)F)cc2OC)sc2ccccc12 [1-156]
G: green foxtail, herbicidal effect (green foxtail [1]): 3 (Herbicidal rate of 40% or more and less than 70%)
J: blackgrass, herbicidal effect (blackgrass): 0 (Herbicidal rate of 5% or less (almost no effect))
N: redroot pigweed, herbicidal effect (redroot pigweed [2]): 3 (Herbicidal rate of 40% or more and less than 70%)
O: lambsquarters, herbicidal effect (lambsquarters [3]): 2 (Herbicidal rate of 20% or more and less than 40%)
P: chickweed, herbicidal effect rating (chickweed [4]): 0 (Herbicidal rate of 5% or less (almost no effect))
I: wild oat, herbicidal effect (wild oat [5]): 3 (Herbicidal rate of 40% or more and less than 70%)
K: Italian ryegrass, herbicidal effect rating (Italian ryegrass [6]): 3 (Herbicidal rate of 40% or more and less than 70%)
H: barnyard grass, herbicidal effect rating (barnyard grass [7]): 0 (Herbicidal rate of 5% or less (almost no effect))
M: velvetleaf, herbicidal effect rating (velvetleaf [8]): 0 (Herbicidal rate of 5% or less (almost no effect))
R: persian speedwell, herbicidal effect (persian speedwell [9]): 3 (Herbicidal rate of 40% or more and less than 70%)
herbicidal effect on D (Chinese sprangletop), rating 0-5 (Chinese sprangletop): 3 (Herbicidal rate of 40% or more and less than 70%)
G: green foxtail, herbicidal effect rating (green foxtail [10]): 0 (Herbicidal rate of 5% or less (almost no effect))
H: barnyard grass, herbicidal effect (barnyard grass [11]): 1 (Herbicidal rate of 5% or more and less than 20%)
P: chickweed, herbicidal effect (chickweed [12]): 5 (Herbicidal rate of 90% or more (almost completely withered))
N: redroot pigweed, herbicidal effect rating (redroot pigweed [13]): 0 (Herbicidal rate of 5% or less (almost no effect))
F: southern crabgrass, herbicidal effect rating (southern crabgrass [14]): 0 (Herbicidal rate of 5% or less (almost no effect))
L: windgrass, herbicidal effect (windgrass): 5 (Herbicidal rate of 90% or more (almost completely withered))
O: lambsquarters, herbicidal effect rating (lambsquarters [15]): 3 (Herbicidal rate of 40% or more and less than 70%)
I: wild oat, herbicidal effect rating (wild oat [16]): 0 (Herbicidal rate of 5% or less (almost no effect))
herbicidal effect on E (rice flat sedge), rating 0-5 (rice flat sedge): 3 (Herbicidal rate of 40% or more and less than 70%)
F: southern crabgrass, herbicidal effect (southern crabgrass [17]): 0 (Herbicidal rate of 5% or less (almost no effect))
M: velvetleaf, herbicidal effect (velvetleaf [18]): 0 (Herbicidal rate of 5% or less (almost no effect))
R: persian speedwell, herbicidal effect rating (persian speedwell [19]): 0 (Herbicidal rate of 5% or less (almost no effect))
herbicidal effect on H (barnyard grass), rating 0-5 (barnyard grass [20]): 3 (Herbicidal rate of 40% or more and less than 70%)
K: Italian ryegrass, herbicidal effect (Italian ryegrass [21]): 4 (Herbicidal rate of 70% or more and less than 90%)
